From ChEMBL document CHEMBL1201862, “PubChem BioAssay data set” (2004)
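Values below derive from 48-hour exposures of cells grown in 96-well plates, with endpoints linearly interpolated between the two concentrations bracketing the appropriate inhibition level. At the GI50, growth is halved.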 Calls of active or inactive are those of the source. Rule as the data show it: active = GI50 up to about 1.1 µM and inactive = higher. Where a SMILES comes first, the peptide text is derived from it. The star is where a group is joined. Cbz = O=C(OCc1ccccc1)*

Assays:
Assay in all cases: growth of human tumour cells (NCI), 48 h
[1] = system: K562
[2] = system: TK-10
[3] = system: A549
[4] = system: 786-0
[5] = system: OVCAR-8
[6] = system: MDA-MB-435
[7] = system: SF-539
[8] = system: ACHN
[9] = system: A498
[10] = system: IGROV-1
[11] = system: CCRF-CEM
[12] = system: UACC-257
[13] = system: T47D
[14] = system: SNB-75
[15] = system: UACC-62
[16] = system: MDA-MB-231
[17] = system: SR
[18] = system: Hs-578T

SMILES | GI50 [1] | GI50 [2] | GI50 [3] | GI50 [4] | GI50 [5] | GI50 [6] | GI50 [7] | GI50 [8] | GI50 [9] | GI50 [10] | GI50 [11] | GI50 [12] | GI50 [13] | GI50 [14] | GI50 [15] | GI50 [16] | GI50 [17] | GI50 [18]
CN(C)/C=N\c1nncc2[nH]cnc12 | 43.6 µM (inactive) | 73.6 µM (inactive) | > 100 µM (inactive) | > 100 µM (inactive) | > 100 µM (inactive) | 63.5 µM (inactive) | > 100 µM (inactive) | > 100 µM (inactive) | > 100 µM (inactive) | > 100 µM (inactive) | 46.1 µM (inactive) | 92.7 µM (inactive) | > 100 µM (inactive) | > 100 µM (inactive) | 51.8 µM (inactive) |  |  | 
C[C@@H]1OC(=O)C[C@H]2CC(=O)N(CCC3CN(S(=O)(=O)C(F)(F)F)c4ccc(Cc5ccc6c(c5)C(CCN5C[C@H]7[C@@H](CC(=O)O[C@H]7C)CC5=O)CN6S(=O)(=O)C(F)(F)F)cc43)C[C@@H]21 (some centres undefined) | > 100 µM (inactive) | > 100 µM (inactive) | > 100 µM (inactive) | > 100 µM (inactive) | > 100 µM (inactive) | > 100 µM (inactive) | < 0.01 µM (active) | > 100 µM (inactive) | > 100 µM (inactive) |  | > 100 µM (inactive) | > 100 µM (inactive) | > 100 µM (inactive) | > 100 µM (inactive) | > 100 µM (inactive) | > 100 µM (inactive) |  | 
N#CCSc1c(-c2ccccc2)c(=O)n(-c2ccccc2)c(=S)n1-c1ccccc1 | > 100 µM (inactive) | > 100 µM (inactive) | > 100 µM (inactive) | > 100 µM (inactive) | > 100 µM (inactive) | 90.6 µM (inactive) |  | > 100 µM (inactive) |  | > 100 µM (inactive) | 96.8 µM (inactive) | > 100 µM (inactive) | > 100 µM (inactive) | 20.1 µM (inactive) | 32.9 µM (inactive) |  | > 100 µM (inactive) | 51.5 µM (inactive)
CS(=O)(=O)O[C@H]1CN2C[C@@H](O)[C@@H](O)[C@H]2[C@H]1CO.[B] | > 100 µM (inactive) | > 100 µM (inactive) | > 100 µM (inactive) | > 100 µM (inactive) | > 100 µM (inactive) | > 100 µM (inactive) | > 100 µM (inactive) | > 100 µM (inactive) | > 100 µM (inactive) | > 100 µM (inactive) | 0.333 µM (active) | > 100 µM (inactive) | > 100 µM (inactive) |  | > 100 µM (inactive) | > 100 µM (inactive) | > 100 µM (inactive) | 
CCOC(=O)[C@@H]1OC(c2ccccc2)O[C@H]1C(=O)OCC | > 100 µM (inactive) | > 100 µM (inactive) | > 100 µM (inactive) | > 100 µM (inactive) | > 100 µM (inactive) | > 100 µM (inactive) |  | > 100 µM (inactive) | > 100 µM (inactive) | > 100 µM (inactive) | > 100 µM (inactive) | > 100 µM (inactive) |  | > 100 µM (inactive) | > 100 µM (inactive) | > 100 µM (inactive) | > 100 µM (inactive) | > 100 µM (inactive)
CC(C)(C)c1cc(/C=C/C(=O)CC(=O)/C=C/c2cc(C(C)(C)C)c(O)c(C(C)(C)C)c2)cc(C(C)(C)C)c1O |  | > 50 µM (inactive) | > 50 µM (inactive) | > 50 µM (inactive) | > 50 µM (inactive) | > 50 µM (inactive) | > 50 µM (inactive) | > 50 µM (inactive) |  | > 50 µM (inactive) | > 50 µM (inactive) | > 50 µM (inactive) |  | > 50 µM (inactive) | > 50 µM (inactive) | > 50 µM (inactive) |  | > 50 µM (inactive)
N#CC(=S)Nc1ccc(Cl)c(Cl)c1 | 11.7 µM (inactive) | 26.5 µM (inactive) | 24 µM (inactive) | 35.7 µM (inactive) | 25.4 µM (inactive) | 27 µM (inactive) | 20.7 µM (inactive) | 33.3 µM (inactive) | 32.7 µM (inactive) | 13.1 µM (inactive) | 10 µM (inactive) | 28.2 µM (inactive) | 27.1 µM (inactive) | 21.7 µM (inactive) | 19 µM (inactive) | 26.7 µM (inactive) | 21.7 µM (inactive) | 
CCCc1cc(=O)oc2c3c(c4c(c12)OC(C)(C)C=C4)O[C@@H](C)[C@H](C)C3=O | 6.46 µM (inactive) | 20.7 µM (inactive) | 8.83 µM (inactive) | 16.9 µM (inactive) | 17.1 µM (inactive) | 21.9 µM (inactive) | 17.7 µM (inactive) | 12.4 µM (inactive) | 14.7 µM (inactive) | 12.9 µM (inactive) | 15.1 µM (inactive) | 19.7 µM (inactive) |  | 13.6 µM (inactive) |  | 11.8 µM (inactive) | 10.2 µM (inactive) | 15.3 µM (inactive)
O=c1c2ccccc2[nH]c2c(Cl)cc(Cl)c(N3CCCCC3)c12 | > 10 µM (inactive) | 39.7 µM (inactive) | 33.2 µM (inactive) | > 10 µM (inactive) | 40 µM (inactive) | 22.8 µM (inactive) | 21.9 µM (inactive) | 23 µM (inactive) | 28.3 µM (inactive) | 18.6 µM (inactive) | > 10 µM (inactive) | 39.1 µM (inactive) | 50.6 µM (inactive) | 30.1 µM (inactive) | > 10 µM (inactive) | 33.6 µM (inactive) | 36.5 µM (inactive) | 
COc1ccc(C2C3=C(COC3=O)Oc3cc4c(cc32)OCO4)c(OC)c1 (centres undefined) | 4.3 µM (inactive) | 62.1 µM (inactive) | 10.9 µM (inactive) | 21.7 µM (inactive) | 44.4 µM (inactive) | 2.28 µM (inactive) | 12.6 µM (inactive) | 19.9 µM (inactive) | 16.1 µM (inactive) | 12.9 µM (inactive) | 11.1 µM (inactive) | 47.9 µM (inactive) |  | 10.9 µM (inactive) | 6.79 µM (inactive) | 9.04 µM (inactive) | 4.99 µM (inactive) | 13.6 µM (inactive)
CCOC(=O)CCC(NC(=O)CNC(=O)CNC(=O)C(CCC(=O)OCC)NC(=O)C(CCC(=O)OCC)NC(=O)C(CCC(=O)OCC)NC(=O)OCc1ccccc1)C(=O)NC(CCC(=O)OCC)C(=O)NC(CCC(=O)OCC)C(=O)OCC (centres undefined) (Cbz-E(OEt)E(OEt)E(OEt)GGE(OEt)E(OEt)E(OEt)-OEt; configuration not given here) |  | > 75 µM (inactive) | > 75 µM (inactive) | > 75 µM (inactive) | > 75 µM (inactive) | > 75 µM (inactive) |  | > 75 µM (inactive) |  | > 75 µM (inactive) | > 75 µM (inactive) | > 75 µM (inactive) |  | > 75 µM (inactive) | > 75 µM (inactive) | > 75 µM (inactive) | > 75 µM (inactive) | > 75 µM (inactive)
Cc1[nH]c(-c2ccccc2)c(-c2ccc(Cl)cc2)c1C(=O)ONC(=O)c1ccccc1 | 2.65 µM (inactive) | 2.81 µM (inactive) | 2.19 µM (inactive) | 1.9 µM (inactive) | 4 µM (inactive) | 2.47 µM (inactive) | 2.22 µM (inactive) | 1.77 µM (inactive) | 6.24 µM (inactive) | 1.16 µM (inactive) | 1.75 µM (inactive) | 6.82 µM (inactive) |  | 3.56 µM (inactive) | 10.1 µM (inactive) | 3.64 µM (inactive) |  | 2.26 µM (inactive)
O=c1c2cc(S(=O)(=O)Nc3ccc(Cl)cc3Cl)ccc2ncn1NS(=O)(=O)c1cccc2ccccc12 | 63.5 µM (inactive) | 85.7 µM (inactive) | 36.9 µM (inactive) | 42 µM (inactive) | 52.2 µM (inactive) | 58.9 µM (inactive) | 38.3 µM (inactive) | 47.5 µM (inactive) |  | 20.7 µM (inactive) | 12.7 µM (inactive) | 77.6 µM (inactive) |  | 60.5 µM (inactive) | 28.9 µM (inactive) | 20.4 µM (inactive) | 22.9 µM (inactive) | 21.5 µM (inactive)
Nc1nc(NNc2cccc(F)c2)cc(=O)[nH]1 | 36.1 µM (inactive) | > 100 µM (inactive) | 29.6 µM (inactive) | 18.8 µM (inactive) | 42.4 µM (inactive) | 25.9 µM (inactive) | > 100 µM (inactive) | 43.6 µM (inactive) | > 100 µM (inactive) | 61.9 µM (inactive) | 43.5 µM (inactive) | > 100 µM (inactive) |  |  |  | 42.2 µM (inactive) | 27 µM (inactive) | 36.8 µM (inactive)
COC(=O)/C=C(\C)C(=O)N(C)c1ccccc1I | > 100 µM (inactive) |  | > 100 µM (inactive) | > 100 µM (inactive) | > 100 µM (inactive) | > 100 µM (inactive) |  | > 100 µM (inactive) | > 100 µM (inactive) |  | > 100 µM (inactive) | > 100 µM (inactive) | > 100 µM (inactive) | 76.9 µM (inactive) | > 100 µM (inactive) | > 100 µM (inactive) | 94 µM (inactive) | 
Cc1ccc(/C=C2\NC(=S)N(CN3CCCCC3)C2=O)cc1 | 43 µM (inactive) | 69.3 µM (inactive) | 51.2 µM (inactive) | 47.3 µM (inactive) | 32.5 µM (inactive) | 46.5 µM (inactive) |  | 43.2 µM (inactive) | 41.3 µM (inactive) | > 100 µM (inactive) | 12.4 µM (inactive) |  |  | > 100 µM (inactive) | 33.3 µM (inactive) | > 100 µM (inactive) | 83.6 µM (inactive) | 41.4 µM (inactive)
CC1=NN(C(=O)Cc2ccccc2)C(=O)/C1=C/c1c(O)ccc2ccccc12 | 40.6 µM (inactive) | 56.9 µM (inactive) | > 100 µM (inactive) | 83.9 µM (inactive) | 37.2 µM (inactive) |  | 29.2 µM (inactive) | 28.1 µM (inactive) |  |  | 23.3 µM (inactive) | 37.5 µM (inactive) |  | 29.6 µM (inactive) |  |  | 45.7 µM (inactive) | 
